“And” between values parts separate entries of the source, which are not always exact repeats. Equal entries are not always repeated.
Assays:
U2OS [1] = assay: (§1) Here: values are normalized to the positive (DMSO; basel flux = defined as 100% suppression) and negative (250nM Torin1; mTOR inhibitor; maximal inducer of autophagy defined as 0% suppression) control compounds and represented as % of ER-phagy suppression. […] The impact of autophagy induction on cells is complex and depends on the affected target. […] Of note, treatment concentrations may be sub-optimal for specific compounds, leading to false negative annotations.; format: functional, Homo sapiens; details: Compound Concentration 1 uM, Culturing Media DMEM, 1 % Penicillin/Streptomycin, 10% Fetal bovin serum Add-On: blasticidin, Screening Media Control DMEM, 10% Fetal bovin serum Add-On: 1 µg/ml Doxycyclin, Screening Media Samples DMEM
U2OS [2] = assay: as §1; format: functional, Homo sapiens; details: Compound Concentration 1 uM, Culturing Media DMEM, 1 % Penicillin/Streptomycin, 10% Fetal bovin serum Add-On: blasticidin, Screening Media Control DMEM, 10% Fetal bovin serum Add-On: 1 µg/ml Doxycyclin, Screening Media Samples DMEM; remark: listed apart in the source
[3] = Timepoint 12 hours, 10% Fetal bovin serum Add-On: 1 µg/ml Doxycyclin 250nM Torin1
[4] = Timepoint 24 hours, 10% Fetal bovin serum Add-On: 1 µg/ml Doxycyclin 250nM Torin1
[5] = Timepoint 36 hours, 10% Fetal bovin serum Add-On: 1 µg/ml Doxycyclin 250nM Torin1
[6] = Timepoint 60 hours, 10% Fetal bovin serum Add-On: 1 µg/ml Doxycyclin 250nM Torin1
[7] = Timepoint 54 hours, 10% Fetal bovin serum Add-On: 1 µg/ml Doxycyclin 250nM Torin1
[8] = Timepoint 12 hours, 10% Fetal bovin serum Add-On: 1 µg/ml Doxycyclin 250nM Torin1, 12 h, 1 µM
[9] = Timepoint 24 hours, 10% Fetal bovin serum Add-On: 1 µg/ml Doxycyclin 250nM Torin1, 24 h, 1 µM
[10] = Timepoint 36 hours, 10% Fetal bovin serum Add-On: 1 µg/ml Doxycyclin 250nM Torin1, 36 h, 1 µM

| SMILES | ER-phagy suppression (U2OS [1]; [3]) [%] | ER-phagy suppression (U2OS [1]; [4]) [%] | ER-phagy suppression (U2OS [1]; [5]) [%] | ER-phagy suppression (U2OS [1]; [6]) [%] | ER-phagy suppression (U2OS [2]; [3]) [%] | ER-phagy suppression (U2OS [2]; [4]) [%] | ER-phagy suppression (U2OS [2]; [5]) [%] | ER-phagy suppression (U2OS [2]; [7]) [%] | ER-phagy suppression (U2OS [1]; [8]) | ER-phagy suppression (U2OS [1]; [9]) | ER-phagy suppression (U2OS [1]; [10]) | ER-phagy suppression (U2OS [1]; Timepoint 60 hours, 10% Fetal bovin serum Add-On: 1 µg/ml Doxycyclin 250nM Torin1, 60 h, 1 µM) | ER-phagy suppression (U2OS [2]; [8]) | ER-phagy suppression (U2OS [2]; [9]) | ER-phagy suppression (U2OS [2]; [10]) | ER-phagy suppression (U2OS [2]; Timepoint 54 hours, 10% Fetal bovin serum Add-On: 1 µg/ml Doxycyclin 250nM Torin1, 54 h, 1 µM) |
| --- | --- | --- | --- | --- | --- | --- | --- | --- | --- | --- | --- | --- | --- | --- | --- | --- |
| C[C@@H]1COCCN1c1cc(C2([S@](C)(=N)=O)CC2)nc(-c2cc[nH]c3nccc2-3)n1 [CERALASERTIB] | -20.381 | -14.6462 | -13.688 | -10.6655 | 5.203 | -10.6428 | -11.7869 | -16.7098 |  |  |  |  |  |  |  |  |
| CN(C)C/C=C/C(=O)Nc1cc2c(Nc3ccc(F)c(Cl)c3)ncnc2cc1O[C@H]1CCOC1 [AFATINIB] | 20.6411 | 25.6226 | 22.4767 | 26.9133 | -20.9199 | -7.924 | -3.193 | 3.819 |  |  |  |  |  |  |  |  |
| Cn1cnc2c(F)c(Nc3ccc(Br)cc3Cl)c(C(=O)NOCCO)cc21 [SELUMETINIB] | 8.54 | 20.3816 | 25.3525 | 22.2273 | -10.3683 | 3.869 | 4.29 | 11.1979 |  |  |  |  |  |  |  |  |
| CN1C(=O)[C@@H](N2CCc3c(nn(Cc4ccccc4)c3Br)C2=O)COc2ccccc21 [TP-030-2] | -11.1908 | -12.0413 | -22.9996 | -25.2811 | 7.634 | -14.2706 | -10.5345 | -6.796 |  |  |  |  |  |  |  |  |
| CN(C)C1CC(n2cnc(-c3ccc(F)cc3)c2-c2ccnc3[nH]ccc23)C1 (configuration not stated) | -29.1009 | -31.4509 | -16.9551 | -15.1332 | 7.195 | 4.326 | 10.3106 | 11.0097 |  |  |  |  |  |  |  |  |
| CN(C)[C@H]1C[C@H](n2cnc(-c3ccc(F)cn3)c2-c2ccnc3[nH]ccc23)C1 | 23.5482 | 2.98 | 12.4603 | 17.3235 | 22.3816 | 21.0505 | 31.8624 | 38.0418 |  |  |  |  |  |  |  |  |
| COc1cc(Nc2ncc3c(n2)-c2ccc(Cl)cc2C(c2c(F)cccc2OC)=NC3)ccc1C(=O)O [ALISERTIB] |  |  |  |  |  |  |  |  | 32.5772% and 15.1943% | 46.3416% and 31.463% | 37.5206% and 17.8935% | 42.3508% and 18.9115% | 17.2717% and 22.6318% | 12.1028% and 15.999% | -4.94% and 1.582% | 5.417% and 8.819% |
| CN(c1ncccc1CNc1nc(Nc2ccc3c(c2)CC(=O)N3)ncc1C(F)(F)F)S(C)(=O)=O.O=S(=O)(O)c1ccccc1 | -10.0797 | -6.87 | 0.4518 | 0.1589 | 6.672 | -24.1053 | -34.2095 | -20.8605 |  |  |  |  |  |  |  |  |
| Cc1cnc(-c2cc(Cl)ccc2F)cc1-n1c(=O)n(CC(N)=O)c2cnccc21 [TP-008] | -1.571 | -13.0499 | -21.2168 | -35.4053 | -24.3103 | -37.6592 | -45.8786 | -56.4398 |  |  |  |  |  |  |  |  |
